One experiment deals with T1, V600EBRAF (Homo sapiens, UniProt P15056, V600E).
T1 construct: purchased Reaction Biology Corp. (Kinase HotSpot service)
Put plainly: Reaction Biology kinase HotSpot enzyme assay. The experiment is classed as biochemical. The conditions noted are these: 1 µM ATP; for IC50: mean ± S.D. of two separate experiments; for % Inhibition at 1 µM over V600EBRAF / inhibition at 1 µM: single dose 1 µM, mean ± S.D. of two experiments; for inhibition at 1 µM: read-out: % Inhibition at 1 µM over V600EBRAF. On the procedure: Reaction Biology Corp. Kinase HotSpotTM service
Proﬁler Express for IC50 measurement. Assay protocol: In a ﬁnal reaction volume of 25 μL, kinase (5–10 mU) is incubated with 25 mM Tris pH 7.5, 0.02 mM EGTA, 0.66 mg/mL myelin basic protein, 10 mM magnesium acetate and [γ33P-ATP] (speciﬁc activity approx. 500 cpm/pmol, concentration as required). The reaction is initiated by the addition of the Mg-ATP mix. After incubation for 40 min at room temperature, the reaction is stopped by the addition of 5 μL of a 3% phosphoric acid solution. 10 μL of the reaction is then spotted onto a P30 ﬁltermat, and washed three times for 5 min in 75 mM phosphoric acid and once in methanol prior to drying and scintillation counting.

In another experiment the test system is HCT-15. Put plainly: NCI 60 cell line screen. The note with it: Homo sapiens; HCT-15, Colon Cancer; read-out: Percent growth. The experiment is classed as cell-based, human. In short, it runs like this:
(§1)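 Read-out was SRB staining of TCA-fixed cells at 515 nm, with growth computed against time-zero (Tz) and untreated control plates; TGI was taken where Ti = Tz. Drugs were tested at five concentrations up to 10 µM for 48 h at 37 °C, added 24 h after plating in RPMI 1640/5% FBS.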

A further experiment has as its system HT29. The experiment can be described thus: NCI 60 cell line screen. The note with it: Homo sapiens, HT-29; HT29, Colon Cancer; read-out: Percent growth. The class given is cell-based, human. In short, it runs like this:
as §1

The next experiment relates to K-562. The experiment can be described thus: NCI 60 cell line screen. The conditions noted are these: Homo sapiens, K562; K-562, Leukemia; read-out: Percent growth. The class given is cell-based, human. In short, it runs like this:
as §1

A further experiment relates to KM12. The experiment can be described thus: NCI 60 cell line screen. The conditions noted are these: Homo sapiens; KM12, Colon Cancer; read-out: Percent growth. The experiment is classed as cell-based, human. In short, it runs like this:
(§2)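 48 h continuous exposure, five doses, highest 10 µM; cells in RPMI 1640 + 5% FBS at 37 °C, 5% CO2. TCA fixation, sulforhodamine B staining, A515.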

A further experiment relates to MOLT-4. The experiment can be described thus: NCI 60 cell line screen. The experiment is classed as cell-based, human. The conditions noted are these: Homo sapiens; MOLT-4, Leukemia; read-out: Percent growth. In short, it runs like this: as §2
The next experiment relates to NCI-H23. Put plainly: NCI 60 cell line screen. The class given is cell-based, human. The conditions noted are these: Homo sapiens; NCI-H23, Non-Small Cell Lung Cancer; read-out: Percent growth. In short, it runs like this: as §1
Another experiment deals with NCI-H460. The experiment can be described thus: NCI 60 cell line screen. The class given is cell-based, human. The conditions noted are these: Homo sapiens; NCI-H460, Non-Small Cell Lung Cancer; read-out: Percent growth. In short, it runs like this: as §1
The test system of another experiment is RXF 393. Put plainly: NCI 60 cell line screen. The experiment is classed as cell-based, human. The conditions noted are these: Homo sapiens; RXF 393, Renal Cancer; read-out: Percent growth. In short, it runs like this:
as §1

The test system of the next experiment is SF-295. The experiment can be described thus: NCI 60 cell line screen. The note with it: Homo sapiens; SF-295, CNS-Cancer; read-out: Percent growth. The class given is cell-based, human. In short, it runs like this: as §1
For the next experiment, the system named is SK-MEL-5. Put plainly: NCI 60 cell line screen. The experiment is classed as cell-based, human. The note with it: for activity at 10 µM: Homo sapiens, SK-MEL-5, Melanoma, read-out: Percent growth. In short, it runs like this: as §2
The test system of another experiment is SR. The experiment can be described thus: NCI 60 cell line screen. The conditions noted are these: for activity at 10 µM: Homo sapiens, Leukemia, read-out: Percent growth. The class given is cell-based, human. In short, it runs like this: as §2

The term IC50 denotes the point on the concentration scale where inhibition reaches its midpoint. A high value points to lower potency. For orientation: % Inhibition means the share of the control response that was lost under treatment. Lower therefore signals little suppression. What is called inhibition is the drop in the measured response relative to a control, in per cent.

T1 sequence (P15056 whole entry V600E): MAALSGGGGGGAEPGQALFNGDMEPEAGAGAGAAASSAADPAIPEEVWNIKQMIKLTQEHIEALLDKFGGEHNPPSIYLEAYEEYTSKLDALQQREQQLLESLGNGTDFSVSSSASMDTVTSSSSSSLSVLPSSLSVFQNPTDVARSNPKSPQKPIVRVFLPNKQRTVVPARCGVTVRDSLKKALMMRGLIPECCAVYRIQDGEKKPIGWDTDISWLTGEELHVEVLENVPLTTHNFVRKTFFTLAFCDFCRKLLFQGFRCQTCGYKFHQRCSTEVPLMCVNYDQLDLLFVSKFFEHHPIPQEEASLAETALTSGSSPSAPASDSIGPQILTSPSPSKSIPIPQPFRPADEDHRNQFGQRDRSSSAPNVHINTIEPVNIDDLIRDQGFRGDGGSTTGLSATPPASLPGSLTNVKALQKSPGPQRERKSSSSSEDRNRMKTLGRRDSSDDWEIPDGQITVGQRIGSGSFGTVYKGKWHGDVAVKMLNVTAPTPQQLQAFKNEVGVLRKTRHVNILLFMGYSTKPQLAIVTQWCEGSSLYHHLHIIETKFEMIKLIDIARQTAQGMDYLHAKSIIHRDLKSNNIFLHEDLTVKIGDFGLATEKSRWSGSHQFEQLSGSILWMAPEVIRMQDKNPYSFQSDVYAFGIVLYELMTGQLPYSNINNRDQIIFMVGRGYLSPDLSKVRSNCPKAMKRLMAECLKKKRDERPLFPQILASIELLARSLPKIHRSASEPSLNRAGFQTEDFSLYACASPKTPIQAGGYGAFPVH

`O=S(=O)(NCCCNc1nccc(-n2cnc3ccccc32)n1)c1ccc(Br)cc1` [12k, N-(3-((4-(1H-benzo [d]imidazol-1-yl)pyrimidin-2-yl)amino)propyl)-4-bromo benzenesulfonamide] registered an IC50 at V600EBRAF of 810 ± 56 nM. Also, the “% Inhibition at 1 µM over V600EBRAF” value at V600EBRAF is 73.81 ± 0.75%. For the same compound, the inhibition at 1 µM on V600EBRAF was 74%. Also, the activity at 10 µM with HCT-15 came to 83.2%; in the experiment with HT29 it was 103%; in the experiment with K-562 it was 73.5%; with KM12, 68.3%; in the experiment on MOLT-4 it was 64.9%; in the experiment with NCI-H23 it was 92.8%. The activity at 10 µM in the experiment on NCI-H460 is 94.3%; in the experiment on RXF 393 it was 111%; in the experiment with SF-295 it was 86.5%; in the experiment on SK-MEL-5, 53.5%; in the experiment on SR, 70.8%. The percent inhibition came out at 40% in the experiment with SK-MEL-5 (SK-MEL-5, NCI-60 heat map analysis) and 30% in the experiment on SR (NCI-60 heat map analysis).

`O=S(=O)(NCCNc1nccc(-n2cnc3ccccc32)n1)c1ccc(Cl)cc1` [12c, N-(2-((4-(1H-benzo [d]imidazol-1-yl)pyrimidin-2-yl)amino)ethyl)-4-chlorobenzenesulfonamide]: the concentration for half-maximal inhibition (IC50) at V600EBRAF stood at 820 ± 24 nM. Further, on V600EBRAF, the “% Inhibition at 1 µM over V600EBRAF” value was 70.55 ± 0.71%. Also, on V600EBRAF, the inhibition at 1 µM was found to be 71%. Also, the activity at 10 µM in the experiment on HCT-15 stood at 96.6%; in the experiment with HT29, 103%; in the experiment on K-562, 97.6%; with KM12 it was 97.1%; in the experiment with MOLT-4, 103%; with NCI-H23, 101%. Besides, the activity at 10 µM in the experiment on NCI-H460 was 103%; with RXF 393 it was 117%; with SF-295, 96.7%; in the experiment with SK-MEL-5, 99.4%; in the experiment with SR it was 96.3%.

Consider `COc1ccc(S(=O)(=O)NCCNc2nccc(-n3cnc4ccccc43)n2)cc1` [12f, N-(2-((4-(1H-benzo [d]imidazol-1-yl)pyrimidin-2-yl)amino)ethyl)-4-methoxy benzenesulfonamide], for which the 50% inhibitory concentration (IC50) on V600EBRAF is 980 ± 20 nM. The “% Inhibition at 1 µM over V600EBRAF” value on V600EBRAF worked out at 55.21 ± 0.52%. In addition, the inhibition at 1 µM on V600EBRAF was 55%. Also, the activity at 10 µM in the experiment with HCT-15 turned out to be 93.7%; in the experiment on HT29, 100%; in the experiment on K-562 it was 93%; in the experiment on KM12 it was 93.2%; with MOLT-4, 93.3%; in the experiment on NCI-H23 it was 96.9%. Besides, the activity at 10 µM was 106% with NCI-H460; 94.6% with RXF 393; 97% in the experiment on SF-295; 92.2% in the experiment with SK-MEL-5; 89.2% with SR.

`O=S(=O)(NCCNc1nccc(-n2cnc3ccccc32)n1)c1ccccc1` [12a, N-(2-((4-(1H-benzo [d]imidazol-1-yl)pyrimidin-2-yl)amino)ethyl)benzenesulfonamide] returned an IC50 on V600EBRAF of 1910 ± 140 nM. In addition, the “% Inhibition at 1 µM over V600EBRAF” value at V600EBRAF is reported as 30.35 ± 0.41%. Also, the inhibition at 1 µM at V600EBRAF amounted to 30%. Also, the activity at 10 µM with HCT-15 came out at 97%; in the experiment on HT29 it was 102%; with K-562, 84.8%; in the experiment with KM12, 100%; with MOLT-4 it was 93.7%; in the experiment with NCI-H23 it was 96.4%. Besides, the activity at 10 µM in the experiment on NCI-H460 amounted to 103%; in the experiment with RXF 393, 113%; with SF-295 it was 97.3%; with SK-MEL-5 it was 95.8%; in the experiment with SR, 97.5%.

The values are drawn from article PMC8508980, “Design, Synthesis and Anticancer Profile of New 4-(1H-benzo[d]imidazol-1-yl)pyrimidin-2-amine-Linked Sulfonamide Derivatives with V600EBRAF Inhibitory Effect” (International Journal of Molecular Sciences, 2021).
